Here are results for four compounds from US9944602B2, “Piperidinone herbicides” (E. I. DU PONT DE NEMOURS AND COMPANY, priority 2014, dated 2018).

What all share (type): in vivo
Assay [1] concerns pigweed (Amaranthus retroflexus). Kind of assay: Test C preemergence pigweed. Conditions: Table C, scale 0 to 100. From the text:
(§1) Seeds of plant species selected from blackgrass (Alopecurus myosuroides), ryegrass, Italian (Italian ryegrass, Lolium multiflorum), wheat (winter wheat, Triticum aestivum), galium (catchweed bedstraw, Galium aparine), corn (Zea mays), crabgrass, large (large crabgrass, Digitaria sanguinalis), foxtail, giant (giant foxtail, Setaria faberii), johnsongrass (Sorghum halepense), lambsquarters (Chenopodium album), morningglory (Ipomoea coccinea), yellow (yellow nutsedge, Cyperus esculentus), pigweed (Amaranthus retroflexus), ragweed (common ragweed, Ambrosia elatior), soybean (Glycine max), barnyardgrass (Echinochloa crus-galli), oilseed rape (Brassica napus), waterhemp (common waterhemp, Amaranthus rudis), and velvetleaf (Abutilon theophrasti) were planted into a blend of loam soil and sand and treated preemergence with test chemicals formulated in a non-phytotoxic solvent mixture which included a surfactant. At the same time, plants selected from these crop and weed species and also chickweed (common chickweed, Stellaria media), kochia (Kochia scoparia), and oat, wild (wild oat, Avena fatua) were planted in pots containing Sunshine Redi-Earth® planting medium comprising spaghnum peat moss, vermiculite, starter nutrients and dolomitic limestone and treated with postemergence applications of test chemicals formulated in the same manner. Plants ranged in height from 2 to 18 cm (1- to 4-leaf stage) for postemergence treatments. Treated plants and controls were maintained in a greenhouse for 13 to 15 days, after which time all species were compared to controls and visually evaluated. Plant response ratings, summarized in Table C, are based on a scale of 0 to 100 where 0 is no effect and 100 is complete control. A dash (-) response means no test result.

For the next assay, the system named is soybean (Glycine max). The experiment in a line: Test C preemergence soybean. Particulars: Table C, scale 0 to 100.
Text: as §1

The test system of assay [2] is barnyardgrass (Echinochloa crus-galli). The experiment in a line: Test C preemergence barnyardgrass. Particulars: Table C, scale 0 to 100.
Text: as §1

The test system of assay [3] is lambsquarters (Chenopodium album). Kind of assay: Test C postemergence lambsquarters. Conditions: Table C, scale 0 to 100.
Text: as §1

The test system of assay [4] is morningglory (Ipomoea coccinea). Kind of assay: Test C postemergence morningglory. Particulars: Table C, scale 0 to 100.
Text: as §1

In assay [5] the test system is yellow (yellow nutsedge, Cyperus esculentus). The experiment in a line: Test C postemergence yellow nutsedge. Particulars: Table C, scale 0 to 100.
Text: as §1

Assay [6] deals with barnyardgrass (Echinochloa crus-galli). Kind of assay: Test C postemergence barnyardgrass. Particulars: Table C, scale 0 to 100.
Text: as §1

The test system of another assay is kochia (Kochia scoparia). Kind of assay: Test C postemergence kochia. Particulars: Table C, scale 0 to 100.
Text: as §1

Assay [7] deals with crabgrass, large (large crabgrass, Digitaria sanguinalis). The experiment in a line: Test A preemergence crabgrass, large. Conditions: 0 to 100 scale; for Crabgrass, Large plant response rating: 125 g ai/ha, 0 no effect, 100 complete control; for Plant response rating, Crabgrass, Large: 500 g ai/ha, 0 is no effect, 100 is complete control. An outline of the steps: (§2)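 Directed soil spray at planting gives preemergence data; foliar application to one- to two-leaf plants gives postemergence data. Response is visual injury relative to untreated controls about 10 d after treatment, scored 0–100.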

The test system of the next assay is corn (Zea mays). Kind of assay: Test A preemergence corn. Particulars: 0 to 100 scale; for Corn plant response rating: 125 g ai/ha, 0 no effect, 100 complete control; for Plant response rating, Corn: 500 g ai/ha, 0 is no effect, 100 is complete control. An outline of the steps: as §2

Consider `O=C1NCCC(c2cccc(C(F)(F)F)c2)C1C(=O)Nc1ccc(F)c(F)c1F` (racemic) [Compound 28], for which the Plant response rating in [1] (125 g ai/ha) came to 0; with soybean (Glycine max) (31 g ai/ha), 0; with soybean (Glycine max) (62 g ai/ha) it was 0; in the assay on soybean (Glycine max) (125 g ai/ha) it was 0; with soybean (Glycine max) (250 g ai/ha), 0; in assay [2] (31 g ai/ha), 60. Further, the Plant response rating is given as 75 in [2] (62 g ai/ha), 90 in [2] (125 g ai/ha) and 95 in assay [2] (250 g ai/ha).
Regarding `O=C1NCCC(c2cccc(C(F)(F)F)c2)C1C(=O)Nc1ccccc1Cl` (racemic) [Compound 17], the Plant response rating in assay [3] (62 g ai/ha) came out at 75; in assay [3] (250 g ai/ha), 80; in assay [4] (31 g ai/ha) it was 0; in assay [4] (62 g ai/ha), 0; in assay [4] (125 g ai/ha), 0; in assay [4] (250 g ai/ha), 5. Moreover, the Plant response rating in assay [5] (31 g ai/ha), in [5] (62 g ai/ha), in assay [5] (125 g ai/ha), in assay [5] (250 g ai/ha), in assay [6] (31 g ai/ha) and in assay [6] (62 g ai/ha) was 0 each time. Besides, the Plant response rating was 5 in [6] (125 g ai/ha); 50 in assay [6] (250 g ai/ha); 0 in the assay on kochia (Kochia scoparia) (31 g ai/ha); 0 in the assay on kochia (Kochia scoparia) (62 g ai/ha); 0 in the assay with kochia (Kochia scoparia) (125 g ai/ha); 0 with kochia (Kochia scoparia) (250 g ai/ha).
Consider `O=C1NCCC(c2cccc(C(F)(F)F)c2)C1C(=O)Nc1cccc(F)c1F` (stereo not shown) [Compound 9, N-(2,3-difluorophenyl)-2-oxo-4-[3-(trifluoromethyl)phenyl]-3-piperidinecarboxamide], for which the “Crabgrass, Large plant response rating” value in assay [7] was determined as 90. For the same compound, the “Plant response rating, Crabgrass, Large” value in [7] was determined as 100. The “Corn plant response rating” value with corn (Zea mays) came out at 20. In the assay on corn (Zea mays), the “Plant response rating, Corn” value stood at 70. The Plant response rating in assay [1] (31 g ai/ha) worked out at 5; in [1] (62 g ai/ha) it was 0; in [1] (125 g ai/ha), 0; in assay [1] (250 g ai/ha), 10; with soybean (Glycine max) (31 g ai/ha) it was 0; with soybean (Glycine max) (62 g ai/ha) it was 0. In addition, the Plant response rating with soybean (Glycine max) (125 g ai/ha) was 0; in the assay with soybean (Glycine max) (250 g ai/ha) it was 0; in assay [2] (31 g ai/ha), 75; in assay [2] (62 g ai/ha), 90; in assay [2] (125 g ai/ha), 95; in assay [2] (250 g ai/ha) it was 95. Also, the Plant response rating in [3] (31 g ai/ha) was 0; in assay [3] (62 g ai/ha), 0; in assay [3] (125 g ai/ha) it was 5; in assay [3] (250 g ai/ha), 0; in assay [4] (31 g ai/ha), 0; in assay [4] (62 g ai/ha) it was 0. In addition, the Plant response rating in assay [4] (125 g ai/ha) turned out to be 30; in assay [4] (250 g ai/ha), 40; in assay [5] (31 g ai/ha) it was 0; in [5] (62 g ai/ha), 0; in assay [5] (125 g ai/ha) it was 0; in [5] (250 g ai/ha) it was 0. Also, the Plant response rating in [6] (31 g ai/ha) was 0; in assay [6] (62 g ai/ha), 5; in assay [6] (125 g ai/ha) it was 60; in assay [6] (250 g ai/ha), 85; in the assay with kochia (Kochia scoparia) (31 g ai/ha), 0; with kochia (Kochia scoparia) (62 g ai/ha) it was 0. Moreover, the Plant response rating in the assay on kochia (Kochia scoparia) (125 g ai/ha) and in the assay on kochia (Kochia scoparia) (250 g ai/ha) was 0 throughout.
On to `O=C1NCCC(c2cccc(C(F)(F)F)c2)C1C(=O)Nc1ccccc1C(F)(F)F` (stereo not shown) [Compound 10, 2-oxo-N-[2-(trifluoromethyl)phenyl)-4-[3-(trifluoromethyl)phenyl]-3-piperidinecarboxamide], for which, in assay [7], the “Crabgrass, Large plant response rating” value stood at 90 and the “Plant response rating, Crabgrass, Large” value was 100. In addition, in the assay with corn (Zea mays), the “Corn plant response rating” value came out at 0 and the “Plant response rating, Corn” value was 0.
